From US12195748B2, “Delivery across cell plasma membranes” (Avectas Limited, priority 2014, dated 2025)
Entries after “also recorded” stand apart in the source; their conditions may differ.

Assays:
CHO cells = assay: Spray delivery of labelled proteins into CHO cells; format: cell-based, Chinese hamster; conditions: for delivery of labelled protein into cells: FITC or Alexa-488 label
From the text: A notable application of delivery technology is the intracellular delivery of proteins. Proteins are a very diverse group in terms of their size, shape and chemistry and few methods are currently available for efficient delivery of these molecules. A broad range of proteins of increasing sizes from 18.3 kDa to 443 kDa were labeled with either FITC or Alexa-488 and their delivery by spraying was examined. […] A general trend towards declining delivery efficiencies with increasing size of protein (FIG. 44) was observed.

A549 cells [1] = assay: Spray-mediated delivery of payloads to A549 cells (fluorescence microscopy, flow cytometry); format: cell-based, human
Method: Each well of the plate was treated as follows: cell culture medium was removed from the well using a micropipette. Optionally, the well was rinsed twice with 250 μL phosphate buffered saline (PBS) using a micropipette. 20 μL of Solution A containing molecules to be delivered was delivered to the cells using the atomizer. The plate was incubated at room temperature for a period of 30 seconds to 2 minutes depending on the size of the molecule to be delivered, following which 250 μL of Solution B was added to the well using a micropipette. The plate was then incubated at room temperature for 30 seconds, at which time Solution B was removed from the well using a micropipette. 500 μL of culture medium was added to the well using a micropipette. The cells were then returned to a humidified atmosphere with 5% CO^2 at 37° C.
Fluorescence Microscopy. Fluorescein isothiocyanate (FITC)- and DyLight Phosphoramidite (DY547)-labelled molecules were used in accordance with the manufacturer's instructions. Labelled molecules to be delivered to the cells were added to Solution A and delivered to cells as described above herein. Following delivery, the plate was placed onto the stage of a fluorescent microscope (Olympus CKX 41) and the cells were viewed using filters to visualize fluorescence. Photomicrographs were acquired.
Flow Cytometry. […] The cell suspension was loaded into a flow cytometer [Accuri Flow Cytometyer, BD Biosciences] and the fluorescence was analyzed according to manufacturer's instruction. […]

Jurkat cells = assay: Spray delivery into Jurkat suspension cells; format: cell-based; conditions: spray after removal of supernatant
Method: In this example, the delivery method across cell types was evaluated. […] The cell suspension was placed into a porous cell culture plate insert and a brief gentle vacuum of approximately −0.5 to −0.68 bar was applied for 20-45 sec to remove supernatant before the cells were sprayed (FIG. 41A and FIG. 42).

A549 cells [2] = assay: Incubation of A549 cells in S Buffer (Medepalli conditions); format: cell-based, human; conditions: 5 min at 4° C.
From the text: A vector-free delivery method was developed based on reversible permeabilisation that would facilitate delivery of payloads into cells in a manner that would retain cell viability and payload functionality. As other groups have done, the following hypothesis was utilized: firstly, permeabilisation could be induced by chemical modification of the cell membrane; secondly, delivery could be enhanced via osmotic pressure brought about by using a hypotonic delivery solution whereby influx of water into the permeabilised cells facilitated influx of a payload and thirdly, cell survival could be enhanced if the hypotonic delivery solution was also buffered and physiological. Based on initial observations, further hypotheses were developed and refined as described later here. For chemical permeabilisation, the most common permeabilising agents are detergents which interact with certain components in cell membranes to create holes (Hapala, I., Crit Rev. Biotech. 1997; 17(2): 105-22). […] (Medepalli K. et al., Nanotechnology 2013; 24(20)). In some examples, potassium acetate is replaced with ammonium acetate in the “S” buffer. They also stated that delivery could be enhanced by adding saponin to the solution. […] Organic solvents such as alcohols can permeabilise cells by dissolving lipid from the cell membrane. […]

A549 cells [3] = assay: Micropipette-mediated delivery of payloads to A549 cells (uptake); format: cell-based, human; conditions: 24-well plates
Method: FIG. 19 is a graph illustrating Micropipette-mediated delivery of payloads in either 200 μl or 20 μl delivery solution to A549 cells in 24-well plates. Uptake efficiency was measured by flow cytometry (5% m bar) and toxicity was measured by lactate dehydrogenase (LDH) release compared to lysed cells positive control.
Cells were seeded into 24-well plates on Day 0 such that they were 80-90% confluent on Day 1 when delivery was carried out. […] Cells were incubated for 2 min at room temperature (RT) to facilitate uptake. To further facilitate uptake and prevent cell dehydration, 200 μl 0.5×-PBS was then added and cells were incubated for a further 30 sec. This solution was then removed and 400 μl culture medium was added. The cells were then analyzed by fluorescence microscopy.

cells = assay: Delivery of molecules to cells, spray apparatus versus micropipette (Examples 2-12); format: cell-based
From the text: Delivery of Molecules. An intranasal mucosal atomization device commercially available from LMA Teleflex of NC, USA under catalogue number MAD300 and including an atomizer emitter was set up as follows: the atomizer emitter was positioned 31 mm from the base of the 24-well plate and above the center point of each circular well of the plate. The atomizer emitter was adjusted to allow a pressure of 1.5 bar. A timer was utilized to dispense spray from the atomizer emitter for a period of 1 second. The atomizer emitter was primed by rinsing three times with Solution A containing molecules to be delivered.
Each well of the plate was treated as follows: cell culture medium was removed from the well using a micropipette. Optionally, the well was rinsed twice with 250 μL phosphate buffered saline (PBS) using a micropipette. 20 μL of Solution A containing molecules to be delivered was delivered to the cells using the atomizer. The plate was incubated at room temperature for a period of 30 seconds to 2 minutes depending on the size of the molecule to be delivered, following which 250 μL of Solution B was added to the well using a micropipette. The plate was then incubated at room temperature for 30 seconds, at which time Solution B was removed from the well using a micropipette. 500 μL of culture medium was added to the well using a micropipette. […]
Fluorescence Microscopy. […] Following delivery, the plate was placed onto the stage of a fluorescent microscope (Olympus CKX 41) and the cells were viewed using filters to visualize fluorescence. […]
Flow Cytometry. […] The cell suspension was loaded into a flow cytometer [Accuri Flow Cytometyer, BD Biosciences] and the fluorescence was analyzed according to manufacturer's instruction.
Cell Viability. Following delivery, cell viability was assessed using the CellTiter 96® AQueous One Solution Cell Proliferation Assay (MTS) (Promega) according to the manufacturer's instructions. […] 100 μL of solution was removed from the well and placed into a 96-well plate and absorbance was read at 450 nm using a GloMax 96 Microplate luminometer [Promega].

[4] = DAPI, phallotoxin and MitoTracker Red together

For “ovalbumin: protein labelled with FITC and delivered into CHO cells”, the “delivery of labelled protein into cells” value (CHO cells) was “successfully delivered” and the “detection of delivered protein with anti-ovalbumin antibody” value (CHO cells; immunofluorescence) was “detected by immunofluorescence”.

For N=C(N)c1ccc(-c2cc3ccc(C(=N)N)cc3[nH]2)cc1 [DAPI, 4′,6-diamidino-2-phenylindole], the co-delivery into cells (A549 cells [1]; 10-kDa dextran-Alexa488 and DAPI together) was “successfully co-delivered”, the co-delivery into cells (A549 cells [1]; [4]) was “successfully co-delivered” and the “delivery to suspension cells” value (Jurkat cells) was “successfully delivered”.

With ClCc1ccc(C2=c3cc4c5c(c3Oc3c2cc2c6c3CCCN6CCC2)CCC[N+]=5CCC4)cc1.[Cl-] [MitoTracker Red] the co-delivery into cells (A549 cells [1]; [4]) was “successfully co-delivered” and the “delivery to suspension cells” value (Jurkat cells) was “successfully delivered”.

With dextran the uptake (A549 cells [2]) was “did not observe uptake”.

In the case of CC[N+](C)(CC)CCC[n+]1c(-c2ccccc2)c2cc(N)ccc2c2ccc(N)cc21.[I-].[I-] [PI, propidium iodide], the “uptake viewed by fluorescent microscopy” value (A549 cells [3]; 20 μL delivery solution) is reported as “apparent at the edge of the well but not in the center; also recorded: apparent in some areas of the well but not in others”, the “uptake viewed by fluorescent microscopy” value (A549 cells [3]; 200 μL delivery solution) is reported as “most cells immediately stained positive” and the “uptake viewed by fluorescent microscopy” value (A549 cells [3]; 200 μL delivery solution, listed as Propidium iodide) is reported as “uptake was visible throughout the cell population”. For the same molecule, the “delivery rate (percent of cells showing successful delivery), spray compared to micropipette” value (cells; Example 3, 150 μM, 20 or 40% ethanol) was “increases the delivery rate”, the “delivery in viable cells” value (cells; Example 3, micropipette, 40% (v/v) ethanol) was “no delivery of molecules was detected in viable cells” and the “simultaneous delivery of two molecules into the cell” value (cells; Example 4, spray, 25% ethanol, same matrix) was “results in delivery of the molecule into the cell”.

B1: catalase: protein labelled with FITC and delivered into CHO cells (protein, UniProt P00432 2-527, looked up)
Catalase: ADNRDPASDQMKHWKEQRAAQKPDVLTTGGGNPVGDKLNSLTVGPRGPLLVQDVVFTDEMAHFDRERIPERVVHAKGAGAFGYFEVTHDITRYSKAKVFEHIGKRTPIAVRFSTVAGESGSADTVRDPRGFAVKFYTEDGNWDLVGNNTPIFFIRDALLFPSFIHSQKRNPQTHLKDPDMVWDFWSLRPESLHQVSFLFSDRGIPDGHRHMNGYGSHTFKLVNANGEAVYCKFHYKTDQGIKNLSVEDAARLAHEDPDYGLRDLFNAIATGNYPSWTLYIQVMTFSEAEIFPFNPFDLTKVWPHGDYPLIPVGKLVLNRNPVNYFAEVEQLAFDPSNMPPGIEPSPDKMLQGRLFAYPDTHRHRLGPNYLQIPVNCPYRARVANYQRDGPMCMMDNQGGAPNYYPNSFSAPEHQPSALEHRTHFSGDVQRFNSANDDNVTQVRTFYLKVLNEEQRKRLCENIAGHLKDAQLFIQKKAVKNFSDVHPEYGSRIQALLDKYNEEKPKNAVHTYVQHGSHLSAREKANL
modifications: FITC label
notes: protein labelled with FITC and delivered into CHO cells
For B1, the “delivery of labelled protein into cells” value (CHO cells) was “successfully delivered”.
